Key:
Mus musculus [1] = species on record: Mus musculus; test: Inhibition of mouse COX2 V349A mutant
Mus musculus [2] = species on record: Mus musculus; test: Inhibition of mouse COX2 V349L mutant
[3] = biological target: Prostaglandin G/H synthase 1 (Homo sapiens, UniProt P23219)
[4] = biological target: T1, Prostaglandin G/H synthase 2 (Homo sapiens, UniProt P35354)
T1 sequence (P35354 whole entry): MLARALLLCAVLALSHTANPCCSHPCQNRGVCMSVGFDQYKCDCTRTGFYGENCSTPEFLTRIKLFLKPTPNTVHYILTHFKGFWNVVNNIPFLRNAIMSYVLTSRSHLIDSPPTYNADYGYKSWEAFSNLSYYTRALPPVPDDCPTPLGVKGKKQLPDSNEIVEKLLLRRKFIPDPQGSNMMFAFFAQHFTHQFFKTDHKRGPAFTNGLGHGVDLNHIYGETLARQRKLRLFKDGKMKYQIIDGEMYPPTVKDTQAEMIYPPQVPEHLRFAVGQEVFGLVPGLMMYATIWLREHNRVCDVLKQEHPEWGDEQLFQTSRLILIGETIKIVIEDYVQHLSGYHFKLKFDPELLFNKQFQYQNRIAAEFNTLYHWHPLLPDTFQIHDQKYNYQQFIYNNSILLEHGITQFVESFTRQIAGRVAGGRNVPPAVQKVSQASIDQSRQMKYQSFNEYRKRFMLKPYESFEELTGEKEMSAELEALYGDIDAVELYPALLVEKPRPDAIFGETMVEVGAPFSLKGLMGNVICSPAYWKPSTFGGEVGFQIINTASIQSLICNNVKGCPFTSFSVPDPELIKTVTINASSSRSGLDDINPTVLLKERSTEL

[5] = Inhibition of cyclooxygenase
[6] = Selectivity for COX1 over COX2
[7] = Inhibition of mouse COX2 S530A mutant
[8] = Inhibition of mouse COX2 Y355F mutant
[9] = Inhibition of mouse COX2 R120A mutant

Chain of Prostaglandin G/H synthase 1 (P23219 whole entry): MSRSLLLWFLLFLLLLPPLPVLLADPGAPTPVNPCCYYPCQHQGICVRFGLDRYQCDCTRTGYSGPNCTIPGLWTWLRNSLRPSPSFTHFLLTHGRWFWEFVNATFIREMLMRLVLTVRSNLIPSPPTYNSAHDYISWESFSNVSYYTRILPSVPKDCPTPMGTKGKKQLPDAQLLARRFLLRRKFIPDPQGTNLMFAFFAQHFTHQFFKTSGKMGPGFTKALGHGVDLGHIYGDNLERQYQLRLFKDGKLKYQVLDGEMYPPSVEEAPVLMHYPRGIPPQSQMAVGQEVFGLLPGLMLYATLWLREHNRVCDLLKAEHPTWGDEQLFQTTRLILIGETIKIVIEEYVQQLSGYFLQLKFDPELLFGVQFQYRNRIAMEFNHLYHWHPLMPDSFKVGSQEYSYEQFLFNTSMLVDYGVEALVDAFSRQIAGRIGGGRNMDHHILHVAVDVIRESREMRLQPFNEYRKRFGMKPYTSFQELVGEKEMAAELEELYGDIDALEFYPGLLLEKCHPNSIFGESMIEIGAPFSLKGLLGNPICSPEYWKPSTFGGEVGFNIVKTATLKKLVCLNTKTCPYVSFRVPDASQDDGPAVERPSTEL

Row | Compound | IC50 [3] | IC50 [4] | further results
1 | COc1ccc2c(c1)c(CC(=O)O)c(C)n2C(=O)c1ccc(Cl)cc1 | – | – | Activity (Mus musculus [1]): 0.08 µM; Activity (Mus musculus [2]): 4 µM
2 | CCOc1cccc(OCC)c1-c1ccc(C(C)C(=O)O)cc1F (configuration not stated) | 7.7 µM | 0.1 µM | –
3 | COc1ccc2c(c1)c(CCNC(=O)c1ccc(Cl)cc1)c(C)n2Cc1ccc(Br)cc1 | > 66 µM | – | –
4 | CC(=O)Oc1ccccc1C(=O)O [ASPIRIN] | – | – | Ki [5]: 20000 µM; Selectivity ratio [6]: 10
5 | O=C(O)Cc1ccccc1Nc1c(Cl)cccc1Cl [DICLOFENAC] | – | – | IC50 [7]: > 50 µM; IC50 [8]: 0.137 µM; IC50 [9]: 0.257 µM
6 | C/C(=N/OCc1ccccc1Nc1c(Cl)cccc1Cl)C(=O)O | > 1 µM | 0.1 µM | –
7 | COc1ccc2c(c1)c(CC(=O)OCCc1ccccc1)c(C)n2C(=O)c1ccc(Cl)cc1 | > 66 µM | – | –
8 | Cc1ccc(Nc2c(F)cccc2Cl)c(CC(=O)O)c1 [LUMIRACOXIB] | > 10 µM | 0.007 µM | –
9 | COc1ccc2c(c1)c(CCOC(=O)c1ccc(Cl)cc1)c(C)n2Cc1ccc(Br)cc1 | > 66 µM | – | –
10 | COc1ccc2c(c1)c(CC(=O)NCCc1ccccc1)c(C)n2C(=O)c1ccc(Cl)cc1 | > 66 µM | – | –

Reference: ChEMBL document CHEMBL1141454, “Structural and functional basis of cyclooxygenase inhibition” (J Med Chem, 2007)
